Experimental findings from ChEMBL document CHEMBL1201862, “PubChem BioAssay data set” (2004) are described below.

For assay [1], the target named is Alkaline phosphatase, placental type (Homo sapiens, UniProt P05187). Nature of the assay: PLAP enzyme inhibitors, confirmation, biochemical, luminescence (AID 1512). Type of assay: functional.
For assay [2], the target named is Glyceraldehyde-3-phosphate dehydrogenase (Homo sapiens, UniProt P04406).
Assay [3] deals with T1, Alkaline phosphatase, tissue-nonspecific isozyme (Homo sapiens, UniProt P05186).
T1 sequence (P05186 whole entry): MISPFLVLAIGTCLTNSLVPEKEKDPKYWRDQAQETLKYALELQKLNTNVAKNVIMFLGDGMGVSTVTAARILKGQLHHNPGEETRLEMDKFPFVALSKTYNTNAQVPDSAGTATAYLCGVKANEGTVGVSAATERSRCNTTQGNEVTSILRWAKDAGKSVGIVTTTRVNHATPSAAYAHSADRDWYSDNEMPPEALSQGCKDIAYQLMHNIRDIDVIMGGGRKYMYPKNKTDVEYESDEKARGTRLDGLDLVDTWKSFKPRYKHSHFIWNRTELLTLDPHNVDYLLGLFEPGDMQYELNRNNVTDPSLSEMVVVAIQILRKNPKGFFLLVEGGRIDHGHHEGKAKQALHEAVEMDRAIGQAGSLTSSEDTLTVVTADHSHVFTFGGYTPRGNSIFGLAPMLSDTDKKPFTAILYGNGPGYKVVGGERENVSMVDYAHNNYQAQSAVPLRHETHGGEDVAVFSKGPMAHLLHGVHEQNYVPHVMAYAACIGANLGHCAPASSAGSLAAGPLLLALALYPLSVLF
Nature of the assay: human TNAP enzyme inhibitors, SAR follow-up, biochemical, luminescent, dose response (AID 1056).

Several values for one entry are separate records, joined by “and”; a condition that tells them apart may be missing. Equal entries are not always repeated. Activity calls are given as the source filed them. No stated cut-off is given here; in the data, actives have a measured IC50 and inactives only a lower limit.

Sequence of Alkaline phosphatase, placental type (P05187 whole entry): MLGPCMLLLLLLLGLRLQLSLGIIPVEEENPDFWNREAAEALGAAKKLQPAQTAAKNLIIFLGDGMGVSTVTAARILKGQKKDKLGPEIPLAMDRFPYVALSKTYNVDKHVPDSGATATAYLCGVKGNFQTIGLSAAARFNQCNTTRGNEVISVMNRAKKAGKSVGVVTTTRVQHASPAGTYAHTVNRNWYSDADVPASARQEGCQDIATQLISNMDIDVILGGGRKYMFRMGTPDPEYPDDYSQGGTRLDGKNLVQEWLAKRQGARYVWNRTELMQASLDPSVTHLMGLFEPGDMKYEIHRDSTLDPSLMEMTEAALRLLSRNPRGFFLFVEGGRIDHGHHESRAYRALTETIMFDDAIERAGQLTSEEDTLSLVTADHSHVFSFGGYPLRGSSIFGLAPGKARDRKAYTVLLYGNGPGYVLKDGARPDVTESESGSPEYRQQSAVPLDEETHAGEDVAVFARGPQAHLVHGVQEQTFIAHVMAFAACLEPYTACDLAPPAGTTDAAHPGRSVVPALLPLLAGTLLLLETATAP
Sequence of Glyceraldehyde-3-phosphate dehydrogenase (P04406 whole entry): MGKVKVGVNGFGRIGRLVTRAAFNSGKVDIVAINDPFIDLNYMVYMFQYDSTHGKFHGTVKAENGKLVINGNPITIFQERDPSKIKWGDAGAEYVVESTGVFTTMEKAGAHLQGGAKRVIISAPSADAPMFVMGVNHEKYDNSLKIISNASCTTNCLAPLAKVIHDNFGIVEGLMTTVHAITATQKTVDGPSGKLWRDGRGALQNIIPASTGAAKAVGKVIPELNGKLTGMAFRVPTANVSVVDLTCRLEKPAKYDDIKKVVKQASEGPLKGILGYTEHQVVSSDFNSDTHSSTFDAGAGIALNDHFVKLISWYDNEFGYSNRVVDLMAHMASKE

In the case of `O=C1C2CC=CCC2C(=O)N1c1nnc(Cc2ccccc2)[nH]1` (stereo unspecified), the IC50 is 2.04 µM (active) and 3.25 µM (active) in assay [1]; > 100 µM (not active) in assay [2]; 169 nM (active) and 126 nM (active) and 172 nM (active) in assay [3].
Take `Oc1ccccc1-c1n[nH]c(-c2ccccc2O)n1`: the IC50 in assay [1] was > 100 µM (inactive); in assay [2], > 100 µM (not active); in assay [3] it was > 100 µM (inactive).

One may read the IC50 as the concentration that gives 50% inhibition.
